The text below walks through data of PMC9465710, “Identification of a BAZ2A-Bromodomain Hit Compound by Fragment Growing” (ACS Medicinal Chemistry Letters, 2022).

One series relates to BAZ2A. On the set-up: method as in PMID 25799074, PMID 25719566. Particulars: cited from earlier work.
Series [1] has as its target T1, BAZ2A bromodomain (Homo sapiens, UniProt Q9UIF9).
T1 construct: made in house
T1 sequence (Q9UIF9 1793-1897 limits assumed): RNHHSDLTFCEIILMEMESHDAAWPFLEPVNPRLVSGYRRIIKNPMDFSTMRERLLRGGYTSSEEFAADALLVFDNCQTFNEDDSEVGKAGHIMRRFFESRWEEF
The series can be described thus: AlphaScreen competition binding assay (BAZ2A bromodomain binding to acetylated peptide). The note with it: single dose 100 μM; IC50 not determined; read-out: Residual activity when tested in single dose. In general terms: In Alpha technology, singlet oxygen from a donor bead excites a nearby acceptor bead.

For series [2], the target named is T1, BAZ2A bromodomain. The series is described as above. As to the method:
The 36 selected molecules were tested by AlphaScreen at single doses in duplicate. Six molecules (compounds 8, 9, 11, 14, 18, and 25) decreased binding of BAZ2A bromodomain to the acetylated peptide by at least 50% when tested at 500 μM. […]
AlphaScreen assay was conducted as detailed in [11]. […]

The next series deals with T2, BAZ2B bromodomain (Homo sapiens, UniProt Q9UIF8).
T2 sequence (Q9UIF8 2060-2164 limits assumed): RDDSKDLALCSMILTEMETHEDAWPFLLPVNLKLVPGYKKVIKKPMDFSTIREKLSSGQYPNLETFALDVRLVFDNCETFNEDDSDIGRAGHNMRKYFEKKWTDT
As to the kind of experiment: AlphaScreen competition binding assay on the BAZ2B bromodomain. The note with it: AlphaScreen dose-response, Figure S6. As to the method:
(§1) Trigonal crystals were obtained by co-crystallization as described in the same work. Monoclinic crystals were obtained by co-crystallization with compound 4 of reference; a back-soaking procedure was then applied by incubating the crystal in the crystallization solution without inhibitors for 36-48 hours, and subsequently exposing it to the new ligand of interest for 12-24 hours.
(§2) Diffraction data were collected at the Elettra Synchrotron Light Source (Trieste, Italy), XRD1 and XRD2 beamlines, and at the ESRF (Grenoble, France), ID30-A1 beamline. Data were processed and structures were solved as described elsewhere. BAZ2A/cmp9 data have been corrected for diffraction anisotropy with STARANISO (https://staraniso.globalphasing.org/cgi-bin/staraniso.cgi).
(§3) Data collection and refinement statistics are reported in Suppl. Tables 3-6. Electron densities (2Fo-Fc polder OMIT map) for the bound inhibitors are shown in Suppl. Fig. 7.
(§4) AlphaScreen assay was conducted as detailed in [11]. All experiments were performed at least in […]
(§5) Isothermal Titration Calorimetry
(§6) ITC experiments were performed using an MicroCal PEAQ-IT C microcalorimeter (Malvern Panalytical , UK) at 25°C with a stirring speed of 750 rpm in 20mM Tris pH 7. 8, 0. 2 M NaCl, 0. 2 mM TCEP and 0. 25% DMSO. For each experiment, one 0. […]

The target in series [3] is T1, BAZ2A bromodomain. As to the kind of experiment: Isothermal titration calorimetry (ITC). Type of series: binding. The note with it: 25°C, 0.25% DMSO, racemic mixture, read-out: equilibrium dissociation constant (KD). As to the method:
as §1, §2, §3, §4, §5, §6
(In general: In ITC the heat of successive injections is recorded.)

Values joined by “and” are separate entries in the source; they are usually repeats but may differ in a detail not shown here. Equal values may be shown once.

`Cn1cc(CCn2cnc(-c3cnn(C)c3)c2-c2ccc(C#N)cc2)cn1` [BAZ2-ICR]: the “affinity for BAZ2A (in words)” value with BAZ2A is “very high nanomolar range”.
On to `CCc1c(-c2csc(N3CCN(Cc4cnc(N)nc4)CC3)n2)[nH]c(C)c1C(C)=O` [Compound 94], for which, on BAZ2A bromodomain [1], the remaining binding at 100 µM was over 50%.
Turning to `CCc1c(-c2csc(N3CCNCC3C(=O)NCc3ncoc3C(C)C)n2)[nH]c(C)c1C(C)=O` (stereo not shown) [Compound 101], on BAZ2A bromodomain [1], the remaining binding at 100 µM was over 50%.
For the compound `CCc1c(-c2csc(N3CCNCC3C(=O)NC3CCC(C(N)=O)CC3)n2)[nH]c(C)c1C(C)=O` (stereo not shown) [Compound 103], the remaining binding at 100 µM on BAZ2A bromodomain [1] is over 50%.
Take `CCc1c(-c2csc(N3CCNCC3C(=O)NCCc3ccno3)n2)[nH]c(C)c1C(C)=O` (stereo not shown) [Compound 104]: at BAZ2A bromodomain [2], the “ligand efficiency (LE)” value is given as 0.24 kcal/mol per heavy atom and the “lipophilic ligand efficiency (LLE)” value came out at 4.0. Moreover, at BAZ2A bromodomain [2] (AlphaScreen dose-response), the IC50 turned out to be 4 ± 0.2 µM. In addition, the “increase in potency with respect to 47” value at BAZ2A bromodomain [2] (from AlphaScreen IC50) worked out at 8 fold. At BAZ2B bromodomain, this compound registered a half-inhibitory concentration (IC50) of 33.5 µM. The equilibrium dissociation constant (Kd) on BAZ2A bromodomain [3] is 7.1 µM and 7 µM.
For `CCc1c(-c2csc(N3CCNCC3C(=O)NCC3CC4(CCC4)C3)n2)[nH]c(C)c1C(C)=O` (stereo not shown) [Compound 106], the remaining binding at 100 µM on BAZ2A bromodomain [1] is over 50%.
Regarding `CCc1c(-c2csc(N3CCNCC3C(=O)NCC3CC(C)C3)n2)[nH]c(C)c1C(C)=O` (stereo not shown) [Compound 114], at BAZ2A bromodomain [1], the remaining binding at 100 µM is over 50%.
Take `CCCOc1ccn2c(C(C)=O)cc(-c3ccccc3S(C)(=O)=O)c2c1` [GSK2801]: the “affinity for BAZ2A (in words)” value with BAZ2A is reported as “very high nanomolar range”.

One may read the IC50 as the concentration that gives 50% inhibition. By Kd is commonly meant the free concentration of one partner at which half of the binding sites on the other are occupied at equilibrium, for simple one-to-one binding.
